Data reported in patent publication US12692239B2, “Methods and compositions for targeting Tregs using CCR8 inhibitors” (Nanjing Immunophage Biomedical Co., Ltd., priority 2020, dated 2026).
Where a name gives a salt, the structure may show the parent alone.

Biological target: CCR8 (Homo sapiens, UniProt P51685)
Test: Tango assay (Tango-CCR8-Gal4-CHO-K1 cells, CCL1-stimulated, ONE-Glo luminescence)
Conditions: Tango Assay IC50, Inhibition of CCR8 Tango cell in vitro

CCR8, sequence (P51685 whole entry, the tested form may be a part): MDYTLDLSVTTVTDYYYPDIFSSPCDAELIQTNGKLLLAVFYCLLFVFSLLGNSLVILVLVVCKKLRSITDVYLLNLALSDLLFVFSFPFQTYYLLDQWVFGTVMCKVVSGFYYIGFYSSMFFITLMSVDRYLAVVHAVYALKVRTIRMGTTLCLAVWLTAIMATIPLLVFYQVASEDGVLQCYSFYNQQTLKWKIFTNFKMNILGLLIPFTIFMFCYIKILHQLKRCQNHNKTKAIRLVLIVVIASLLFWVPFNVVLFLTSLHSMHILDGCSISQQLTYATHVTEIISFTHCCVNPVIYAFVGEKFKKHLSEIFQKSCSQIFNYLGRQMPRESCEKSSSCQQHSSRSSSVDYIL

IC50: 9 nM
SMILES: Cc1ccccc1C(=O)Nc1c(C)cc(S(=O)(=O)N[C@H](C)C2CCNCC2)cc1Cl [Compound 180A, (R)-N-(2-chloro-6-methyl-4-(N-(1-(piperidin-4-yl)ethyl)sulfamoyl)phenyl)-2-methylbenzamide hydrochloride]
